Measurements: patent US5124326A, “Pharmaceutically efficacious pteridine derivatives” (Roehm GmbH Chemische Fabrik, priority 1989, dated 1992)
≈ marks a conversion by molar mass, not a printed value. Read-outs that look alike come from different tables or passages of the source.

Columns and labels:
[1] = distribution coefficient log P; format: physicochemical; settings: for logD: read-out: lipophilicity log P; for logP: from the preparation examples
[2] = solubility in isotonic phosphate buffer pH 7.4; format: physicochemical; settings: for solubility: aqueous buffer
[3] = tested on: urine volume, Na^+, K^+; assay: diuresis test in rats (urine volume, Na+, K+ excretion; dose/response, ED50); format: in vivo, Male Wister rats; settings: for Na^+/K^+ quotient i.v. / Na^+/K^+ quotient p.o. / ED50: rats; for ED50: Rattus norvegicus
Method: The compounds of formula I and their acid addition salts, with physiologically tolerable acids are quite suitable for peroral and intravenous medication. The diuresis tests were conducted according to the following method. Diuresis Tests/Method Male Wister rats, weighing approximately 130 g, were used in the tests. Food had been withdrawn from the rats for 18 hours. Immediately before the intravenous administration of the test substance, they were fed orally a quantity of 20 ml/kg of 0.9% NaCl solution. […] Under a slight anesthesia, administration was by the caudal vein. Generally six experimental animals were used per test. The peroral administration was by means of probang in the gastrointestinal region. The substances were administered in a mixture comprising Tylose® and physiological NaCl solution, which serves simultaneously as the hydration agent ([…]). The animals were placed individually into diuresis cages and urine was collected after 2.5 or 3 or 6 hours. The electrolytes (Na^+ K^+, Mg^+2) were determined by means of flame photometry and by means of atomic absorption measurement with the FL6 automatic electrolyte equipment from Zeiss/Oberkochen. Curves for dose/response correlations were obtained with the aid of non-linear regression analysis with the NONLIN computer program by C. Daniel and F. S. Wood in "Fitting Equations to Data", J. Wiley & Sons, New York, 1980. Thus, the characteristic value ED50 (=potency) applied to determine the diuretic efficacy is defined as the quantity of active substance per kg of body weight, which is necessary for the semi-maximum effect.

[4] = resorption rate from renal recovery following p.o. and i.v. administration; format: in vivo, Male Wister rats; settings: rat, urine, po; quotient of urinary recovery p.o./i.v.; rats
Method: Male Wister rats, weighing approximately 130 g, were used in the tests. Food had been withdrawn from the rats for 18 hours. Immediately before the intravenous administration of the test substance, they were fed orally a quantity of 20 ml/kg of 0.9% NaCl solution. […] Under a slight anesthesia, administration was by the caudal vein. Generally six experimental animals were used per test. The peroral administration was by means of probang in the gastrointestinal region. The substances were administered in a mixture comprising Tylose® and physiological NaCl solution, which serves simultaneously as the hydration agent ([…]). The animals were placed individually into diuresis cages and urine was collected after 2.5 or 3 or 6 hours. The electrolytes (Na^+ K^+, Mg^+2) were determined by means of flame photometry and by means of atomic absorption measurement with the FL6 automatic electrolyte equipment from Zeiss/Oberkochen. The renal recovery of the test substances serves as a means of measuring resorption following oral administration. The resorption rate is determined from the quotients of the recovery rates following peroral (p.o.) and intravenous (i.v.) administration, as given in percent. The recovery rate notes the renally excreted quantity based on the medicated quantity of the active substances. The concentration of the test substances in the urine of the animals is determined in accordance with thin-layer chromatographic separation by means o spectrophotometry.

[5] = metabolization; settings: in vivo
[6] = isotonic phosphate buffer, pH = 7.4, read-out: solubility
[7] = isotonic phosphate buffer pH 7.4, read-out: solubility in isotonic phosphate buffer
[8] = iv, duration 2.5 h, read-out: ED50 (potency), urine K^+
[9] = iv, duration 2.5 h, read-out: ED50 (potency), urine Na^+
[10] = iv, duration 2.5 h, read-out: ED50 (potency), urine volume
[11] = iv, duration 6 h, read-out: ED50 (potency), urine K^+
[12] = iv, duration 6 h, read-out: ED50 (potency), urine Na^+
[13] = iv, duration 6 h, read-out: ED50 (potency), urine volume
[14] = po, duration 3 h, read-out: ED50 (potency), urine K^+
[15] = po, duration 3 h, read-out: ED50 (potency), urine Na^+
[16] = po, duration 3 h, read-out: ED50 (potency), urine volume
[17] = po, duration 6 h, read-out: ED50 (potency), urine K^+
[18] = po, duration 6 h, read-out: ED50 (potency), urine Na^+
[19] = po, duration 6 h, read-out: ED50 (potency), urine volume

Structure (SMILES) | logD ([1]; pH = 7.4) | solubility [2, 6] [µg/mL] | Na^+/K^+ quotient i.v. [3] | Na^+/K^+ quotient p.o. [3] | Fa [4] [%] | solubility [2, 7] [µg/mL] | ED50 [3, 8] [µmol/kg] | ED50 [3, 9] [µmol/kg] | ED50 [3, 10] [µmol/kg] | ED50 [3, 11] [µmol/kg] | ED50 [3, 12] [µmol/kg] | ED50 [3, 13] [µmol/kg] | further results
CC1CC(C)CN(Cc2ccc(-c3nc4c(N)nc(N)nc4nc3N)cc2)C1 (stereo not drawn) [compound IG, 2,4,7-Triamino-6-[4-(3,5-dimethylpiperidinomethyl)phenyl]pteridine] | 1.74 | 13 (≈ 34.3 µM) | 39 | 7 | 23 | – | – | – | – | – | – | – | –
CN(C)CCCc1ccc(-c2nc3c(N)nc(N)nc3nc2N)cc1 [compound IH, 2,4,7-Triamino-6-[40(3-dimethylaminopropyl)phenyl]pteridine] | -0.6 | – | 12 | 7 | 3 | 2000 (≈ 5910 µM) | 1.41 | 1.44 | 1.23 | 1.3 | 1.83 | 1.7 | logP [1]: -0.6
CN(C)Cc1ccc(-c2nc3c(N)nc(N)nc3nc2N)cc1 [compound IA, 2,4,7-Triamino-6-[4-(dimethylaminomethyl)phenyl]pteridine] | -0.36 | 580 (≈ 1870 µM) | 9 | 18 | 11 | – | – | – | – | – | – | – | –
CC1CCCC(C)N1CCCc1ccc(-c2nc3c(N)nc(N)nc3nc2N)cc1 (stereo not drawn) [compound IL, 2,4,7-Triamino-6-[4-(3-(2,6-dimethylpiperidino)propyl)phenyl]pteridine] | 0.04 | 1500 (≈ 3690 µM) | 170 | 8 | 3 | – | – | – | – | – | – | – | –
CC(C)N(Cc1ccccc1)Cc1ccc(-c2nc3c(N)nc(N)nc3nc2N)cc1 [compound IC, 2,4,7-Triamino-6-[4-(N-benzyl-N-isopropylaminomethyl)phenyl]pteridien] | 3.2 | 1.9 (≈ 4.58 µM) | 7 | 13 | – | – | – | – | – | – | – | – | metabolization [5]: is metabolized quantitatively
CC1CC(C)CN(CCCc2ccc(-c3nc4c(N)nc(N)nc4nc3N)cc2)C1 (stereo not drawn) [compound IM, 2,4,7-Triamino-6-[4-(3-(3,5-dimethylpiperidino)propyl)phenyl]pteridine] | 1.18 | – | 128 | 27 | 7 | 135 (≈ 332 µM) | – | – | – | – | – | – | logP [1]: 1.18
CC1CCN(Cc2ccc(-c3nc4c(N)nc(N)nc4nc3N)cc2)CC1 [compound IE, 2,4,7-Triamino-6-[4-(4-methylpiperidinomethyl)phenyl]pteridine] | 0.89 | 139 (≈ 381 µM) | 27 | 14 | 31 | – | 5.4 | 3.13 | 2.65 | 5.9 | 12.7 | 8.24 | increased solubility in comparison to Triamterene ([2]; pH 7.4 in phosphate buffer, vs Triamterene): 6.5 fold; ED50 [3, 14]: 2.16 µmol/kg; ED50 [3, 15]: 9.49 µmol/kg; ED50 [3, 16]: 11.8 µmol/kg; ED50 [3, 17]: 2.41 µmol/kg; ED50 [3, 18]: 12.7 µmol/kg; ED50 [3, 19]: 14.8 µmol/kg; potassium-saving potency in comparison to Triamterene ([3]; following peroral administration, vs Triamterene): higher potassium-saving potency; metabolization [5]: No metabolization
Nc1nc(N)c2nc(-c3ccc(CN4CCCCC4)cc3)c(N)nc2n1 [compound ID, 2,4,7-Triamino-6-[4-(piperidinomethyl)phenyl]pteridine] | 0.2 | 76 (≈ 217 µM) | 37 | 7 | 19 | – | – | – | – | – | – | – | –
CC1CCCC(C)N1Cc1ccc(-c2nc3c(N)nc(N)nc3nc2N)cc1 (stereo not drawn) [compound IF, 2,4,7-Triamino-6-[4-(2,6-dimethylpiperidinomehyl)phenyl]pteridine] | 0.68 | 25 (≈ 66.1 µM) | 21 | 15 | 33 | – | – | – | – | – | – | – | –
Nc1nc(N)c2nc(-c3ccccc3)c(N)nc2n1 [Triamterene, 2,4,7-triamino-6-phenylpteridine, reference compound] | – | 21 (≈ 82.9 µM) | 8 | 6 | ~80 | – | 11.2 | 2.38 | 13.9 | 9.79 | 10.6 | 10.6 | lipophilicity log P ([1]; pH = 7.4): 1.26; ED50 [3, 14]: 3.38 µmol/kg; ED50 [3, 15]: 6.17 µmol/kg; ED50 [3, 16]: 6.4 µmol/kg; ED50 [3, 17]: 8.39 µmol/kg; ED50 [3, 18]: 5.06 µmol/kg; ED50 [3, 19]: 6.57 µmol/kg
CN(C)CCc1ccc(-c2nc3c(N)nc(N)nc3nc2N)cc1 [compound IJ, 2,4,7-Triamino-6-[4-(2-dimethylaminoethyl)phenyl]pteridine] | -0.59 | – | 10 | 6 | 4 | 2200 (≈ 6780 µM) | 1.04 | 1.63 | 2.36 | 2.6 | 1.64 | 2.61 | logP [1]: -0.59
Nc1nc(N)c2nc(-c3ccc(CN4CCC(Cc5ccccc5)CC4)cc3)c(N)nc2n1 [compound IB, 2,4,7-Triamino-6-[4-(4-benzylpiperidinomethyl)phenyl]pteridine] | 2.7 | – | 17 | 4 | < 1 | 1.1 (≈ 2.5 µM) | – | – | – | – | – | – | –
